Laboratory results taken from PMC10160475, “Biological evaluation and in silico studies of novel compounds as potent TAAR1 agonists that could be used in schizophrenia treatment” (Frontiers in Pharmacology, 2023).

How the values were obtained:
[1] = test system: MK801-induced schizophrenia-like behavior; experiment: MK801-induced schizophrenia-like behavior (open field, distance traveled); type: in vivo, C57BI/6J mice
Method: Ninety-nine male C57BI/6J mice were divided randomly into 11 groups. Mice were placed in a room 1 h before testing. They were administered (p.o.) vehicle (0.1 ml/10 g), 50A (0.3, 1, 3, and 10 mg/kg; 0.1 ml/10 g), or 50B (0.3, 1, 3, and 10 mg/kg; 0.1 ml/10 g). […] Then, mice were administered (i.p.) MK801 (0.8 mg/kg dissolved in physiologic saline; 0.1 ml/10 g). After 30 min, the distance that mice traveled was measured.
Forty-six male C57BI/6J mice were divided randomly into four groups. The CN group contained four mice. […] The administration method described previously was employed.

[2] = molecular target: T1, human TAAR1 (Homo sapiens, UniProt Q96RJ0); experiment: cAMP assay, functional agonist activity at human TAAR1; type: cell-based
T1 construct: expressed in transfected cells; host or cells: cAMP Hunter CHO-K1 AGTRL1 Gi cells
T1 sequence (Q96RJ0 1-339): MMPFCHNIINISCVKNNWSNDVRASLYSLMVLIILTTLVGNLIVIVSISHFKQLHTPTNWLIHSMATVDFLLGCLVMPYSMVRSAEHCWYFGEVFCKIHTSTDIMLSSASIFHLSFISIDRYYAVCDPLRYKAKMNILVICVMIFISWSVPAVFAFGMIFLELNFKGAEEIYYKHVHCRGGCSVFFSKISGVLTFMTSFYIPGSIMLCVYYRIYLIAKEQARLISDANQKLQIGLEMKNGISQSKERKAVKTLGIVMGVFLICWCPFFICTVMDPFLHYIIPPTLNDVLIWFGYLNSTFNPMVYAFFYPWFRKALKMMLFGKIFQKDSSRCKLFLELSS
Method: Cells were seeded in a total volume of 20 µL into white-walled, 384-well microplates, followed by incubation at 37°C for the appropriate time before testing. Different concentrations of compounds were added to cells, and incubation was undertaken at 37°C for 10 min, with p-tyramine used as the MAX control. cAMP modulation was determined using the DiscoverX HitHunter cAMP XS + assay. Percentage activity was calculated using the following equation: Activity %=mean RLUtest sample – mean RLUvehicle control/mean RLUMAX control – mean RLUvehicle control×100%.

[3] = test system: catalepsy; experiment: Catalepsy assay (bar test); type: in vivo, C57BI/6J mice; conditions: 100 mg/kg p.o., 30 and 90 min after administration
Method: Twenty-four male C57BI/6J mice were divided randomly into four groups. Mice were placed in a room 1 h before testing. […] The front paws of mice were placed on a horizontal metal bar raised 2 inches above a Plexiglas™ platform 30 min and 90 min after administration. The time the front paws of mice were placed on the platform was recorded at ≤30 s per trial. Each test was repeated three times.

Cc1nc2n(c(=O)c1CCN1CCC(c3noc4cc(F)ccc34)CC1)CCCC2 [risperidone, reference compound]
MK801-induced schizophrenia-like behavior ([1]; mice, risperidone 0.1 mg/kg p.o., MK801 0.8 mg/kg i.p.): significantly reduced

O=C1CCc2ccc(OCCCCN3CCN(c4cccc(Cl)c4Cl)CC3)cc2N1 [aripiprazole, reference compound]
MK801-induced schizophrenia-like behavior ([1]; mice, aripiprazole 5 mg/kg p.o., MK801 0.8 mg/kg i.p.): significantly reduced

c1csc([C@H]2CNCCO2)c1 [Compound 50A]
EC50 [2]: 6.25 µM
Emax ([2]; cAMP modulation, p-tyramine as MAX control, read-out: TAAR1 Agonist % Emax): 64%
Inhibition of MK801-induced schizophrenia-like behavior (effective doses) ([1]; mice, single oral dose 0.3, 1, 3 and 10 mg/kg, MK801 0.8 mg/kg i.p.): only at 1 mg/kg
Distance moved by mice in the presence or absence of MK801 ([1]; single oral dose 0.3, 1, 3 and 10 mg/kg): significantly reduced the distance moved by mice
Time mice spent holding bars (catalepsy) [3]: did not increase this time
